These results are taken from publication PMC10582583, “The novel cyclophilin inhibitor C105SR reduces hepatic ischaemia–reperfusion injury via mitoprotection” (JHEP Reports, 2023).

Holding throughout (format): cell-based, mouse
Assay [1] deals with AML-12 cells. The assay is described as follows: LDH release, hypoxia/reoxygenation. As to conditions: for inhibition of LDH release / LDH release: 4 h hypoxia, 2 h reoxygenation; for LDH release: applied during hypoxia and reoxygenation. Here is the method: As expected, cells subjected to hypoxia/reoxygenation were characterised by greater LDH release and reduced cell viability as compared to untreated controls (Fig. 4A and 4B). […]
Hypoxia/reoxygenation (H/R) in vitro model. AML-12 mouse hepatocyte line was obtained from American Type Culture Collection (ATCC) and maintained in DMEM/F12 culture medium at 37°C with 5% CO2. HepaRG human hepatocyte line was obtained from American Type Culture Collection (ATCC) and maintained in William’S E culture medium at 37°C with 5% CO2.When indicated, cells were incubated in phosphate buffered saline at 37°C in a hypoxic chamber filled with 94% N2, 1% O2, 5% CO2 for 4 h to mimic ischemic conditions. Then, cells were transferred to a CO2 incubator at 37°C in regular DMEM/F12 culture medium for 1 or 2 h under normoxic conditions (74% N2, 21% O2, 5% CO2). SMCypIs or vehicle (DMSO) were added during the hypoxia period, during the reoxygenation period, or during both. CsA and ALV were used as positive controls for hepatic protection against H/R injury. […]
Cell viability assays. Lactate dehydrogenase (LDH) release in culture medium was assessed using the commercially non-radioactive CytoTox-96 kit (Promega, Madison, Wisconsin) following the manufacturer’s instructions. Briefly, cell culture media were collected and the LDH activity was determined by measuring absorbance at 491 nm with a spectrometer (Multiskan skyHigh). For 3-(4,5-dimethylthiazol-2-yl)-2,5-diphenyltetrazolium bromide (MTT) assay, cells were incubated with a solution of MTT (0.5 mg/mL) for 2 h at 37°C. The medium was then removed and 50 µL DMSO was added to each well. Optical density of purple formazan product was measured at 550 nm. Cell viability was expressed as a percentage of the untreated control.

Assay [2] concerns AML-12 cells. Nature of the assay: Caspase 3/7 activity assay, hypoxia/reoxygenation. As to conditions: applied during hypoxia and reoxygenation; 4 h hypoxia, 2 h reoxygenation. The protocol: Necrosis is the major cause of cell death during hepatic IRI. However, mPTP opening also leads to apoptosis resulting from mitochondrial swelling, rupture of the outer mitochondrial membrane and subsequent release of cytochrome C into the cytosol.[20] We investigated whether C105SR and C110SR protected against mPTP opening-induced apoptotic cell death.
Mouse serum analysis. Blood was collected at 6 h of reperfusion. Alanine aminotransferase (ALT) and aspartate aminotransferase (AST) activities were measured on an automated analyzer in the Biochemistry Department of Henri Mondor Hospital.
Histological Analysis. Hematoxylin and eosin staining was performed on 4-μm thick formalin-fixed paraffin-embedded tissue sections. […] Necrosis areas were quantified with […]
TUNEL Assay. […] The number of TUNEL-positive cells were quantified using QuPath on slides scanned at x20 magnification using a virtual slide scanning system (Axio scan7/ZEN slidescan).
Caspase 3/7 activity assay. Caspase 3/7 activity was assessed using the commercially Caspase-Glo® 3/7 assay (Promega, Madison, Wisconsin) following the manufacturer’s instructions.
Briefly, Caspase-Glo® 3/7 Reagent was incubated with the cells and the caspase3/7 activity was determined by measuring luminescence with a luminometer (Berthold). Caspase3/7 activity was expressed as a percentage of the untreated control. […]

Assay [3] deals with AML-12 cells. Nature of the assay: mPTP opening, CoCl2-calcein AM fluorescence-quenching assay, hypoxia/reoxygenation. As to conditions: for prevention of mPTP opening (loss of calcein fluorescence): 1 μM, 4 h hypoxia, 1 h reoxygenation. The protocol: We next evaluated the ability of compounds C105SR and C110SR to inhibit mPTP opening in cells. The hepatocyte cell line AML-12 was subjected to 4 h of hypoxia followed by 1 h of reoxygenation and mPTP opening was monitored using the CoCl2-calcein-acetoxymethyl ester (AM) fluorescence-quenching method.[19] Calcein-AM is a membrane permeable fluorophore which passively diffuses in all subcellular compartments including mitochondria. In the cell, the AM group of the fluorophore is cleaved by ubiquitous intracellular esterases, generating a hydrophilic product that is retained within the cell. The cells are then loaded with the divalent cobalt cation (Co^2+), which quenches calcein fluorescence in all subcellular compartments except the mitochondrial matrix, because the inner mitochondrial membrane is impermeable to cobalt. However, when mPTP is open, cobalt enters mitochondria and quenches mitochondrial calcein fluorescence. […]
Hypoxia/reoxygenation (H/R) in vitro model. AML-12 mouse hepatocyte line was obtained from American Type Culture Collection (ATCC) and maintained in DMEM/F12 culture medium at 37°C with 5% CO2. HepaRG human hepatocyte line was obtained from American Type Culture Collection (ATCC) and maintained in William’S E culture medium at 37°C with 5% CO2.When indicated, cells were incubated in phosphate buffered saline at 37°C in a hypoxic chamber filled with 94% N2, 1% O2, 5% CO2 for 4 h to mimic ischemic conditions. Then, cells were transferred to a CO2 incubator at 37°C in regular DMEM/F12 culture medium for 1 or 2 h under normoxic conditions (74% N2, 21% O2, 5% CO2). SMCypIs or vehicle (DMSO) were added during the hypoxia period, during the reoxygenation period, or during both. CsA and ALV were used as positive controls for hepatic protection against H/R injury.
Monitoring of mPTP opening. mPTP opening was monitored in AML-12 cells using the CoCl2-calcein AM fluorescence-quenching assay. Cells were loaded with 1 µM calcein-AM (green) for 20 min. Then, 1 mM CoCl2 was added and cells were incubated for another 10 min. Cells were washed and subjected to 4 h of hypoxia followed by 1 h of reoxygenation. Calcein fluorescence was measured using a spectrofluorimeter at excitation and emission wavelengths of 485 nm and 535 nm, respectively. Images were acquired using a standard inverted fluorescence microscope (Zeiss Axio, […]
media during the entire H/R period. Images shown are representative images of 12-18 images. […]
Optical density of purple formazan product was measured at 550 nm. […]

For the compound `COc1ccc(Br)cc1[C@H](NC(=O)NCc1ccc2c(c1)CCCN2)C(=O)N1CCC[C@@H]1c1cccc2ccsc12` [Compound C105SR, 1-((S)-2-((R)-2-(benzo[b]thiophen-7-yl)pyrrolidin-1-yl)-1-(5-bromo-2-methoxyphenyl)-2-oxoethyl)-3-((1,2,3,4-tetrahydroquinolin-6-yl)methyl)urea], in the assay on AML-12 cells [1] (0.5 μM), the “inhibition of cell death” value was “inhibited” and the “inhibition of LDH release” value is recorded as “potent activity inhibiting LDH release”. For the same compound, the LDH release entry in the assay on AML-12 cells [1] is reported as “reduced LDH release”. In the assay on AML-12 cells [2], the “protection against hypoxia/reoxygenation-induced cell apoptosis (caspase 3/7 activity)” value is reported as “protected against hypoxia/reoxygenation-induced cell apoptosis”. For the same compound, the “inhibition of mPTP opening” value in the assay with AML-12 cells [3] (0.5 μM) was “inhibited”. Besides, the “prevention of mPTP opening (loss of calcein fluorescence)” value in the assay on AML-12 cells [3] was “substantially prevented”.
Consider `COc1ccc(Br)cc1[C@H](NC(=O)NCc1ccc(N)cc1)C(=O)N1CCC[C@@H]1c1cccc2ccsc12` [Compound C110SR, 1-(4-aminobenzyl)-3-((S)-2-((R)-2-(benzo[b]thiophen-7-yl)pyrrolidin-1-yl)-1-(5-bromo-2-methoxyphenyl)-2-oxoethyl)urea], for which the “inhibition of LDH release” value with AML-12 cells [1] (0.5 μM) was “not effective”. Further, the LDH release entry in the assay with AML-12 cells [1] is reported as “reduced LDH release”. The “protection against hypoxia/reoxygenation-induced cell apoptosis (caspase 3/7 activity)” value in the assay on AML-12 cells [2] was “protected against hypoxia/reoxygenation-induced cell apoptosis”. Besides, the “prevention of mPTP opening (loss of calcein fluorescence)” value in the assay with AML-12 cells [3] is “substantially prevented”.
